Patent US11208405B2, “Pyrrole derivatives as PLK1 inhibitors” (SENTINEL ONCOLOGY LIMITED, priority 2017, dated 2021)
Structures can show the parent of a compound that is named as a salt.

Experiments:
Type in all cases: cell-based
HCT116 cells = test: Effects on HCT116 colorectal cancer cell viability (cell titre blue, 72 hours); details: Homo sapiens, HCT-116, HCT116 cell line
Procedure: Assay to Measure the Effects of Compounds of the Invention on HCT116 Colorectal Cancer Cell Viability
The following protocol was used to measure the effects of compounds of the invention on HCT116 cell viability.
1. HCT116 cells were grown in RPM11640 media supplemented with Glutamax and 10% FBS in a 37° C./5% CO2 incubator.
2. Growing culture of HCT116 cells were trypsinised, counted and diluted to give 10,000 cells/mL in an appropriate volume, allowing at least 6 mL of cells per plate.
3. 200 μL of PBS were added to all the outer wells of a flat-bottomed (8×12) 96-well TC plate. 100 μL of media were added only to wells in column 11 of the plates (these wells provided a blank for the cell titre blue assay). Two compounds were assayed on each plate.
4. 100 ul of 10,000 cells/mL HCT116s were plated in rows B-G of each plate.
5. The cells were incubated (37° C. 5% CO2) for 24 hours before treating with compounds.
6. An 8 mM compound stock in DMSO was prepared for all compounds to be tested. 2.5 μL of the compound stock was added to 1000 μL growth medium in a 96-well deep well block and serial dilutions were prepared across the plate by transferring 500 μL into wells containing 500 μL growth medium+0.25% DMSO to give eight concentrations of compound (this ensured a constant amount of DMSO at all concentrations of compound). When making up growth medium+DMSO, an amount of 5 ml was allowed per compound to be diluted.
7. 3 rows of cells were treated with 100 μL/well from each row on the dilution plate so that each cell plate is treated with a single compound. This gave a final volume in all wells of 200 μL and a titration of compound from a final concentration of 10 uM down to 78 nM.
8. The cells were incubated (37° C. 5% CO2) for 72 hours.
9. 5 ul cell titre blue reagent (Promega) were added to all wells except the edge wells (which contain PBS only) and incubated (37° C. 5% CO2) for 2.5-3 hours.
10. Fluorescence was measured on a suitable plate reader using a 530-570 nm filter set for excitation and a 580-620 nm filter set for fluorescence emission.
11. Data were analysed using an appropriate graphing package (such as GraphPad Prism). Data were expressed as the concentration of compound causing a 50% inhibition of cell viability or GI50.

wild-type HeLa cell line = test: Wild-type versus KRAS HeLa cell viability: wild-type KRAS transgene; details: Homo sapiens; HeLa cells expressing wild-type KRAS, 72 hours; read-out: WT GI50
Procedure: (§1) Assay to Measure the Effects of Compounds of the Invention on Wild-Type Versus KRAS HeLa Cell Viability
(§2) Identifying synthetic lethal interactions between targeted small molecule therapies and characterised oncogenic mutations is a goal of modern oncology drug discovery efforts. To this end, PLK1-PBD inhibitors were tested on HeLa cells engineered to inducibly express wild-type or oncogenic KrasG12V transgenes using the FLP-in/T-Rex system (Invitrogen). Cells were plated, and then treated with or without Doxycycline to induce transgene expression, and then treated with serially-diluted PBD inhibitors. After 72 hours of incubation, cell viability was assessed using the Cell Titre Blue reagent (Promega) and a BMG Pherastar plate reader. The effect of PBD inhibition on cell viability with either wild-type or oncogenic G12V KRAS was assessed using the graphing/curve-fitting packages in GraphPad Prism.

KRAS G12V HeLa cell line = test: Wild-type versus KRAS HeLa cell viability: oncogenic KrasG12V transgene; details: Homo sapiens; HeLa cells expressing KRAS G12V, 72 hours
Procedure: as §1, §2

HeLa cells = test: Arresting cells in mitosis (Mitotic Index, phosphorylated Histone H3 immunofluorescence); details: HeLa cell line, 24 hours; for EC50: Homo sapiens, Mitotic Index, read-out: EC50
Procedure: Assay to Measure the Effects of Compounds of the Invention on Arresting Cells in Mitosis
Inhibiting the ability of PLK1 to bind to its phosphopeptide binding partners through the PBD causes cells to arrest in mitosis. Experimentally, this is measured by assessing the number of cells which are in mitosis at a certain time after treatment with a PLK1-PBD inhibitor by immunofluorescent detection of phosphorylated Histone H3 (pH3), a marker which is only present in mitotic cells. PLK1-PBD inhibitors are expected to cause a dose-dependent increase in pH3-positive cells, which is reported as Mitotic Index (MI)—the percentage of cells which, at a given time, are positive for this mitotic mark. The following protocol has been used to measure MI: • 1. Plate HeLa cells at 10,000/well in 100 μL/well in clear flat-bottom 96-well plates and incubate overnight. • 2. Immediately prior to treatment, dilute compounds in medium in a 96-well round-bottom plate. Make up all compounds at 5 times final desired concentration on cells, and serially dilute 1:2 across the plate ensuring that there is 100 μL of each concentration (start with 200 μl of the top concentration on the left of the plate). […] Treat cells by adding 25 μL from the compound dilution plate to triplicate wells. • 4. Incubate cells with compound for 24 hours. • 5. After 24 hours, fixation and staining is carried out as follows: • 6. Dilute 37% formaldehyde in PBS to give a 12.95% solution by adding 3.5 mL formaldehyde to 6.5 mL of PBS. • 7. Add 50 μL of formaldehyde fixation solution directly to each well of cells (which already contain 125 μL medium). • 8. Incubate at room temp for 10 minutes. • 9. Remove fixative and add 100 μL/well PBS+0.1% Triton X-100 for 10 minutes. • 10. Aspirate and add 100 μL/well PBS+1% BSA. • 11. Aspirate and add 50 μL/well of primary antibody (anti-PH3 [1:2000]/anti-MPM2 [1:1000]) diluted in PBS+1% BSA. Incubate for 1 hour. • 12. Wash×2 with 100 μL/well PBS+1% BSA. • 13. Add 50 μL/well of secondary antibody plus Hoechst stain (anti-rabbit Alexafluor 488 [1:500]; anti-mouse Alexafluor 546 [1:500]+Hoechst 33342 [1:2500 final concentration=4 μg/mL])diluted in PBS+1% BSA. Incubate for 1 hour. • 14. Wash twice with 100 μL/well PBS+1% BSA. • 15. Aspirate and add 100 μL/well PBS. Plates can be stored at 4° C. in PBS for several weeks before scanning on the Cellomics Arrayscan. […] Scan on Cellomics using Target Activation Bioapplication. • 17. MI data emerging from the Cellomic Bioapplication can be used to plot MI versus compound concentration, and subsequently used to generate an EC50 value for each compound using an appropriate graphing/curve-fitting package such as GraphPad Prism.

SMILES | GI50 (HCT116 cells) | GI50 (wild-type HeLa cell line) | GI50 (KRAS G12V HeLa cell line) | EC50 (HeLa cells) | % mitotic cells (HeLa cells)
CN(C)CCCOc1ccc(-c2ccc(-c3ccc(Br)cc3)n2-c2ccccc2C(F)(F)F)cc1 [Example 35, hydrochloride] | 220 nM | 210 nM | 140 nM | – | –
CN(C)CCNC(=O)c1cccc(-c2ccc(-c3ccc(Br)cc3)n2-c2ccccc2C(F)(F)F)c1 [Example 2, 3-[5-(4-Bromophenyl)-1-[2-(trifluoromethyl)phenyl]pyrrol-2-yl]-N-[2-(dimethylamino)ethyl]benzamide Hydrochloride] | – | 180 nM | 50 nM | 860 nM | 86%
CN(C)CCNC(=O)c1cccc(-c2ccc(-c3ccc(Br)cc3)n2-c2ccccc2O)c1 [Example 25, hydrochloride] | 3890 nM | 2510 nM | 3580 nM | – | –
CN(C)CCNC(=O)c1ccc(Cl)c(-c2ccc(-c3ccc(Br)cc3)n2-c2ccccc2C(F)(F)F)c1 [Example 15, hydrochloride] | 2180 nM | 650 nM | 380 nM | – | –
CNCCNC(=O)c1cccc(-c2ccc(-c3ccc(Br)cc3)n2-c2ccccc2C(F)(F)F)c1 [Example 23] | 390 nM | 240 nM | 80 nM | 740 nM | 79%
CN(C)CCCNC(=O)c1cccc(-c2ccc(-c3ccc(Br)cc3)n2-c2ccccc2C(F)(F)F)c1 [Example 24] | 490 nM | 260 nM | 80 nM | 620 nM | 77%
CN(C)CCNC(=O)c1ccc(-c2ccc(-c3ccc(Br)cc3)n2-c2cnccc2C(F)(F)F)cc1 [Example 41] | 50 nM | 40 nM | 20 nM | – | –
CN(C)CCNC(=O)c1ccc(-c2ccc(-c3ccccc3)n2-c2ccccc2C(F)(F)F)cc1 [Example 26, hydrochloride] | 120 nM | 120 nM | 70 nM | – | –
COc1ccc(-c2ccc(-c3ccc(Br)cc3)n2-c2ccccc2C(F)(F)F)cc1C(=O)NCCN(C)C [Example 53, hydrochloride] | 560 nM | 340 nM | 220 nM | – | –
CN(C)CCNC(=O)c1ccc(-c2ccc(-c3ccccc3)n2-c2ccccc2C(F)(F)F)c(Cl)c1 [Example 37, hydrochloride] | 20 nM | 50 nM | 20 nM | – | –
CN(C)CCNC(=O)c1ccc(-c2ccc(-c3ccc(Br)cc3)n2-c2ccccc2C(F)(F)F)c(Cl)c1 [Example 36, hydrochloride] | 30 nM | 120 nM | 60 nM | – | –
CN(C)CCNC(=O)c1ccc(-c2ccc(-c3ccc(C#N)cc3)n2-c2ccccc2C(F)(F)F)cc1 [Example 57] | 60 nM | 50 nM | 30 nM | – | –
CN(C)CCNC(=O)c1cccc(-c2ccc(-c3ccc(Br)cc3)n2-c2ccccc2N)c1 [Example 56, hydrochloride] | 2710 nM | 2190 nM | 2520 nM | – | –
CN(C)CCNC(=O)c1ccc(-c2ccc(-c3ccc(Br)cc3)n2-c2ccccc2C(F)(F)F)cn1 [Example 28] | – | 60 nM | 30 nM | – | –
CN(C)CCCNC(=O)c1ccc(-c2ccc(-c3ccc(Br)cc3)n2-c2ccccc2C(F)(F)F)cc1 [Example 34] | 80 nM | 130 nM | 90 nM | – | –
CN(C)CCNC(=O)c1ccc(-c2ccc(-c3ccc(F)nc3)n2-c2ccccc2C(F)(F)F)cc1 [Example 42, hydrochloride] | 380 nM | 130 nM | 50 nM | – | –

Compounds with a lower GI50 (wild-type HeLa cell line), results first:

GI50 (HCT116 cells) | GI50 (wild-type HeLa cell line) | GI50 (KRAS G12V HeLa cell line) | EC50 (HeLa cells) | SMILES | % mitotic cells (HeLa cells)
60 nM | 30 nM | 10 nM | – | CN(C)CCCNC(=O)c1ccc(-c2ccc(-c3ccc(F)cc3)n2-c2ccccc2C(F)(F)F)cc1 [Example 60, hydrochloride] | –
30 nM | 30 nM | 20 nM | – | CN(C)CCCNC(=O)c1ccc(-c2ccc(-c3ccc(Cl)cc3)n2-c2ccccc2C(F)(F)F)cc1 [Example 58] | –
40 nM | 30 nM | 10 nM | – | CN(C)CCNC(=O)c1ccc(-n2ncc(-c3ccc(Cl)cc3)c2-c2ccccc2C(F)(F)F)cc1 [Example 82, 4-[4-(4-Chlorophenyl)-5-[2-(trifluoromethyl)phenyl]pyrazol-1-yl]-N-[2-(dimethylamino)ethyl]-benzamide Hydrochloride] | –
60 nM | 20 nM | 5 nM | – | CN(C)CCNC(=O)c1ccc(-c2ccc(-c3ccc(Cl)cc3)n2-c2ccccc2C(F)(F)F)nc1 [Example 61, hydrochloride] | –
60 nM | 20 nM | 8 nM | – | O=C(NCCN1CCNCC1)c1ccc(-c2ccc(-c3ccc(Cl)cc3)n2-c2ccccc2C(F)(F)F)cc1 [Example 87, hydrochloride] | –
120 nM | 20 nM | 8 nM | – | CN(C)CCCNC(=O)c1ccc(-c2ccc(-c3ccc(Cl)cc3)n2-c2ccccc2C(F)(F)F)nc1 [Example 62, hydrochloride] | –
20 nM | 10 nM | 5 nM | – | CN1CC[C@H](NC(=O)c2ccc(-c3ccc(-c4ccc(Cl)cc4)n3-c3ccccc3C(F)(F)F)cc2)C1 [Example 71, hydrochloride] | –
50 nM | 10 nM | 8 nM | – | CN(C)CCNC(=O)c1ccc(-c2ccc(-c3ccc(F)cc3)n2-c2ccccc2C(F)(F)F)cc1 [Example 59, hydrochloride] | –
10 nM | 10 nM | 5 nM | – | CN(C)CCNC(=O)Cc1ccc(-c2ccc(-c3ccc(Cl)cc3)n2-c2ccccc2C(F)(F)F)cc1 [Example 91, hydrochloride] | –
20 nM | 5 nM | 3 nM | – | CN1CC[C@@H](NC(=O)c2ccc(-c3ccc(-c4ccc(Cl)cc4)n3-c3ccccc3C(F)(F)F)cc2)C1 [Example 70, hydrochloride] | –
